This is an account of results in patent publication US8784860B2 (Cordis Corporation, priority 2005, dated 2014).

One may read the IC50 as the point on the concentration scale where inhibition reaches its midpoint.

The nature of data set [1]: Liquid formulations: drug concentration by liquid chromatography and visual observation. Type of data set: physicochemical. The settings on record: water, ethanol less than two percent, Vitamin E TPGS.
Experimental: The concentrations of each constituent were determined by liquid chromatography and are presented as weight by volume figures.
The liquid formulation was created utilizing the following process. Two hundred milligrams of sirolimus and two grams of ethanol were added to a pre-weighed twenty milliliter scintillation vial. The vial was vortexed and sonicated until the sirolimus was completely dissolved. Approximately six hundred milligrams of Vitamin E TPGS was then added to the solution of ethanol and sirolimus. The vial was vortexed again until a clear yellowish solution was obtained. Nitrogen gas was then used to reduce the amount of ethanol in the vial to approximately two hundred twenty-nine milligrams. In a separate vial, three hundred milligrams of Vitamin E TPGS was dissolved in eleven milliliters of purified water while undergoing vortexing. The Vitamin E TPGS and water solution was then added to the first vial containing the sirolimus, Vitamin E TPGS and ethanol. The first vial was then vortexed vigorously and continuously for three minutes.
In another exemplary embodiment, a liquid formulation of CCI-779, a sirolimus analog, is prepared utilizing ethanol, Vitamin E TPGS and water. This liquid formulation was made under similar conditions as to that described above. […]
Data set [2] relates to human coronary artery smooth muscle cells. The data set can be described thus: Anti-proliferative activity in synchronized cultured coronary artery smooth muscle cells, two percent fetal bovine serum. Type of data set: cell-based. An excerpt: (§1) The multiple curves represent various concentrations of topotecan ranging from zero to three hundred nanomolar concentrations.
(§2) The multiple curves represent various concentrations of etoposide ranging from zero to eight hundred nanomolar concentrations.
Referring to FIG. 66, there is illustrated, in graphical format, the anti-proliferative activity of Panzem® in synchronized cultured human coronary artery smooth muscle cells stimulated with two percent fetal bovine serum.
The multiple curves represent various concentrations of Panzem® ranging from zero to 100 micromolar concentrations.

The subject of data set [3] is human coronary artery smooth muscle cell. The settings on record: concentrations 6.6 nanomolar up to 30,000.00 nanomolar. An excerpt: In vitro cytotoxicity tests or assays may be utilized to determine if drugs, agents and/or compounds are potentially toxic and the level of toxicity. Essentially, in vitro cytotoxicity assays determine acute necrotic effects by a drug causing direct cellular damage. The idea behind these assays is that toxic chemicals affect basic functions of cells which are common to all cells. […] There are a number of different assays that may be utilized. In the present invention, the cytotoxicity assay utilized is based upon the measurement of cellular metabolic activity. A reduction in metabolic activity is an indication of cellular damage. Tests that can measure metabolic function measure cellular ATP levels or mitochondrial activity via MTS metabolism. FIG. 69 is a graphical representation of the results of an MTS assay of Panzem®.

A further data set deals with bovine blood. The data set can be described thus: In vitro bovine blood loop model (In 111 labeled platelets). Conditions: sirolimus/cilostazol coated stents versus control. The text has this: The anti-thrombotic efficacy of the above-described three configurations is illustrated in FIG. 80. FIG. 80 illustrates the anti-thrombotic properties of the sirolimus/cilostazol combination coatings described above in an in vitro bovine blood loop model. In the in vitro bovine blood loop model, fresh bovine blood is heparinized to adjust for acute clotting time (ACT) of about two hundred (200) seconds. The platelet content in the blood is labeled through the use of Indium 111. In the study, a stent is deployed in a silicone tube, which is part of a closed loop system for blood circulation. The heparinzed blood is circulated through the closed loop system by means of a circulating pump. Blood clots and thrombus builds up on a stent surface over time and reduces the flow rate of blood through the stented loop. […] The control drug eluting stent is the Cypher® sirolimus eluting coronary stent available from Cordis Corporation. Bar 8004 is a stent coated with heparin and is available from Cordis Corporation under the […]® on the Bx Velocity® coronary stent trademark. Bar 8006 is a stent configured as set forth with respect to the architecture illustrated in FIG. 75. Bar 8008 is a stent configured as set forth with respect to the architecture illustrated in FIG. 77. Bar 8010 is a stent configured as set forth with respect to the architecture illustrated in FIG. 79.

Data set [4] can be described thus: Porcine pharmacokinetics studies: in vivo release kinetics from stent coatings. Conditions: for drug remained in the drug coating: after eight (8) days of implantation, porcine, single layer sirolimus + cilostazol in EVA/BMA, 100 μg BMA overcoat (FIG. 83).
Source text: The topcoat is two hundred micro grams.
FIG. 61 is a graphical representation of the in vivo release kinetics of cladribine from a polymeric coating on Bx Velocity® stents, available from Cordis Corporation, implanted in a Yorkshire pig. The basecoat comprises an 85/15 ratio of PVDF and HFP and cladribine for a total combined weight of one thousand eight hundred micrograms (cladribine comprising thirty percent of the total weight). The topcoat comprises an 85/15 ratio of PVDF/HFP and no cladribine. The total weight of the topcoat is three hundred micrograms.
(§3) The basecoat is applied to Bx Velocity® stents and implanted into Yorkshire pigs.
as §3
Another critical parameter for the performance of the thrombus resistance of a device coated with cilostazol is the duration of the drug release from the coating. This is of particular significance in the two weeks after device implantation. […] The purpose of the porcine PK study is to assess the local pharmacokinetics of a drug eluting stent at a given implantation time. Normally three stents are implanted in three different coronary arteries in a pig for a given time point and then retrieved for total drug recovery analysis. The stents are retrieved at predetermined time points; namely, 1, 3 and 8 days. The stents are extracted and the total amount of drug remaining on the stents is determined by analysis utilizing HPLC (high performance liquid chromatography) for total drug amount. The difference between the original amount of drug on the stent and the amount of drug retrieved at a given time represents the amount of drug released in that period. The continuous release of drug into surrounding arterial tissue is what prevents the neointimal growth and restenosis in the coronary artery. A normal plot represents the percentage of total drug released (%, y-axis) vs. time of implantation (day, x-axis). […] Curve 8102 represents cilostazol and curve 8104 represents sirolimus. […] In this exemplary configuration, the stent 8300 is coated with two layers. The first layer 8302 comprises a combination of sirolimus, cilostazol and a copolymer matrix of EVA/BMA. The second layer or diffusion overcoat 8304 comprises only BMA. More specifically, in this embodiment, the first layer 8302 comprises a combination of sirolimus and cilastazol that is forty-five (45) percent by weight of the total weight of the first layer 8302 and an EVA/BMA copolymer matrix that is fifty-five (55) percent by weight of the total weight of the first layer 8302. The diffusion overcoat comprises one hundred (100 μg) micrograms of BMA.

The nature of data set [5]: In vitro release kinetics from stent coatings. Type of data set: physicochemical. Conditions: for in vitro release rate of cladribine, effect of topcoat: twenty-five percent ethanol/water, room temperature.
For data set [6], the system named is human smooth muscle cells. The data set can be described thus: Cladribine Example: PDGF-stimulated proliferation of smooth muscle cells. Type of data set: cell-based. Conditions: from IC50 values 23 and 40 nanomolar. How it is done:
To assess the ability of cladribine to prevent cell proliferation, human smooth muscle or endothelial cells (Clonetics, Walkersville, Md.) were seeded at a density of 2000 cells/cm^2 (approximately 3600 cells/well) into each well of 12-well plates and cultured with 1.5 ml of growth medium containing five percent fetal calf serum (FCS). After twenty-four hours, the growth medium was changed and fresh medium containing 10 ng/ml platelet-derived growth factor AB (PDGF AB; LIFE Technologies), as well as various concentrations of cladribine (0.001-10,000 nM) were added with triplicate wells. Medium was replaced with fresh cladribine-containing medium after three days. On day six, cells were detached by trypsinization to yield a cell suspension, lightly centrifuged to pellet and then counted manually using a Neubauer hemocytometer system. Cell viability was assessed by trypan blue exclusion.

Data set [7] concerns human coronary artery smooth muscle cells. The data set can be described thus: Anti-proliferative activity in non-synchronized cultured coronary artery smooth muscle cells, two percent fetal bovine serum. The data set is classed as cell-based. An excerpt: The multiple curves represent various concentrations of mycophenolic acid ranging from zero to one thousand nanomolar concentrations.
FIG. 58 illustrates, in graphical format, the anti-proliferative activity of cladribine in non-synchronized cultured human coronary artery smooth muscle cells stimulated with two percent fetal bovine serum.
The multiple curves represent various concentrations of cladribine ranging from zero to nine hundred nanomolar concentrations.

A further data set concerns cell viability. The data set can be described thus: Cell viability assay. The data set is classed as cell-based.
Source text: as §1, §2

Data set [8] concerns human coronary artery smooth muscle cell. As to the kind of experiment: In vitro cell culture study of coronary artery smooth muscle cell proliferation (trichostatin A). The data set is classed as cell-based. The text has this:
FIG. 51 is a graph of the inhibition of coronary artery smooth muscle cells by trichostatin A in a cell culture study.

The subject of another data set is tumor cell lines. The settings on record: tumor cell lines (Woo et al., 2002); cited from earlier work.
The mark [9] stands for this setting: 600 μg EVA/BMA basecoat with 30% rapamycin and 30% mycophenolic acid, no, 100 or 200 μg BMA topcoat.

Entries after “also recorded” stand apart in the source; their conditions may differ.

On to `CO[C@H]1C[C@@H]2CC[C@@H](C)[C@@](O)(O2)C(=O)C(=O)N2CCCC[C@H]2C(=O)O[C@H]([C@H](C)C[C@@H]2CC[C@@H](OC(=O)C(C)(CO)CO)[C@H](OC)C2)CC(=O)[C@H](C)/C=C(\C)[C@@H](O)[C@@H](OC)C(=O)[C@H](C)C[C@H](C)/C=C/C=C/C=C/1C` [CCI-779], for which the “concentration of CCI-779 in the final solution (HPLC)” value in data set [1] stood at 15000 µg/mL.

For `COc1cc2c(cc1O)CC[C@@H]1[C@@H]2CC[C@]2(C)[C@@H](O)CC[C@@H]12` [Panzem®, 2-methoxyestradiol], the “effect of Panzem on the anti-proliferative activity of rapamycin” value in data set [2] (Panzem 0.813 to 100 micromolar added to rapamycin) is reported as “potentiation of rapamycin by Panzem®; also recorded: increases the percent of inhibition of rapamycin alone”. Besides, the “anti-proliferative activity (single agent)” value in [2] (synchronized human coronary artery smooth muscle cells, two percent fetal bovine serum) is “extremely effective inhibitor of human coronary artery smooth muscle cell proliferation in vitro”. For the same compound, the “cytotoxicity, MTS assay” value in data set [3] is listed as “do not reduce human coronary artery smooth muscle cell survival”.

Consider `O=C1CCc2cc(OCCCCc3nnnn3C3CCCCC3)ccc2N1` [cilostazol, 6[4-(1-cyclohexyl-1H-tetrazol-5-yl)-butoxy]-3,4-dihydro-2-(1H)-quinolinone], for which the thrombus formation result in the data set on bovine blood is given as “significantly reduces thrombus formation”. Further, the “drug remained in the drug coating” value in [4] is on record as around 80%. The “in vitro drug release rate, 200 μg versus 100 μg BMA diffusion overcoat” value in data set [5] (layered sirolimus/cilostazol coatings of FIGS. 75 and 77) is on record as “comparatively slower from the configuration comprising the thicker diffusion overcoat of BMA”. Moreover, the in vitro release in data set [5] (single layer sirolimus + cilostazol in EVA/BMA, 100 μg BMA overcoat (FIG. 83)) is on record as around 35%.

In the case of `Nc1nc(Cl)nc2c1ncn2[C@H]1C[C@H](O)[C@@H](CO)O1` [cladribine, 2-chlorodeoxyadenosine], in data set [6], the “potency as inhibitor of smooth muscle cells relative to endothelial cells” value was “approximately twice”. Besides, the “effect of cladribine on the anti-proliferative rapamycin dose response curves” value in data set [7] (cladribine 56.25 to 900 nanomolar added to rapamycin) was “potentiate the anti-proliferative activity of rapamycin; also recorded: increases the percent inhibition of rapamycin alone”. Moreover, the “inhibition of human coronary artery smooth muscle cell proliferation” value in [7] (non-synchronized cells, two percent fetal bovine serum) was “completely inhibits”. Further, the “in vivo elution of cladribine” value in data set [4] (Bx Velocity stent, Yorkshire pig, 1800 μg PVDF/HFP (85/15) basecoat with 30% cladribine, 300 μg topcoat) is “after the first day, the elution of cladribine levels off significantly”. In [4] (EVA/BMA basecoat, 200 μg BMA topcoat, Yorkshire pigs), the “in vivo elution of cladribine compared with rapamycin” value is “elutes more rapidly than rapamycin”. In addition, the figures for the “in vitro release rate of cladribine, effect of topcoat” value in data set [5] (non-sterile PVDF/HFP (85/15) coatings) and in data set [5] (sterile PVDF/HFP coating) were “increase in topcoat weight or thickness led to a decrease in the release rate of cladribine” and “drastic decrease of release rate of cladribine”, respectively.

For `COc1cc([C@@H]2c3cc4c(cc3[C@@H](O[C@@H]3O[C@@H]5CO[C@@H](C)O[C@H]5[C@H](O)[C@H]3O)[C@H]3COC(=O)[C@H]23)OCO4)cc(OC)c1O` [etoposide], the “effect of etoposide on the anti-proliferative rapamycin dose response curves” value in [2] (etoposide 255.7 to eight hundred nanomolar added to rapamycin) is “potentiate the anti-proliferative activity of rapamycin; also recorded: increases the percent inhibition of rapamycin alone”. In the data set with cell viability (concentrations up to ten micromolar), the “cytotoxicity in cell viability assay” value is “non-cytotoxic”.

With `COc1c(C)c2c(c(O)c1C/C=C(\C)CCC(=O)O)C(=O)OC2` [mycophenolic acid], the “effect of mycophenolic acid on the anti-proliferative rapamycin dose response curve” value in data set [7] (mycophenolic acid zero to one thousand nanomolar added to rapamycin) is reported as “potentiates the anti-proliferative activity of rapamycin”. In addition, in [4] (setting [9]), the “in vivo release of mycophenolic acid, effect of topcoat” value is on record as “BMA topcoat does slow the release of mycophenolic acid”. Besides, the “in vivo elution of mycophenolic acid compared with rapamycin” value in data set [4] (EVA/BMA basecoat, BMA topcoat) is reported as “elutes more completely over a shorter duration than the rapamycin”.

Take `CO[C@H]1C[C@@H]2CC[C@@H](C)[C@@](O)(O2)C(=O)C(=O)N2CCCC[C@H]2C(=O)O[C@H]([C@H](C)C[C@@H]2CC[C@@H](O)[C@H](OC)C2)CC(=O)[C@H](C)/C=C(\C)[C@@H](O)[C@@H](OC)C(=O)[C@H](C)C[C@H](C)/C=C/C=C/C=C/1C` [rapamycin]: the “in vivo release of rapamycin, effect of topcoat” value in data set [4] (setting [9]) is “BMA topcoat does slow the release of rapamycin”. In data set [4] (600 μg EVA/BMA basecoats with varied rapamycin/cladribine loads, 200 μg BMA topcoat, Yorkshire pigs), the “in vivo release rates of rapamycin from three rapamycin/cladribine coatings” value is “substantially similar to one another”. Further, the “in vivo release rate of rapamycin compared with mycophenolic acid” value in data set [4] (600 μg PVDF basecoat, 200 μg PVDF topcoat) is “slower release rate than that of mycophenolic acid”. The “drug remained in the drug coating” value in data set [4] is listed as around 80%.

`CC[C@@]1(O)C(=O)OCc2c1cc1n(c2=O)Cc2cc3c(CN(C)C)c(O)ccc3nc2-1` [topotecan]: the “effect of topotecan on the anti-proliferative rapamycin dose response curves” value in data set [2] (topotecan 18.8 to 300 nanomolar added to rapamycin) is recorded as “potentiate the anti-proliferative activity of rapamycin; also recorded: increases the percent inhibition of rapamycin alone”. In the data set with cell viability (concentrations up to one micromolar), the “cytotoxicity in cell viability assay” value was “non-cytotoxic”.

As to `CC(/C=C/C(=O)NO)=C\[C@@H](C)C(=O)c1ccc(N(C)C)cc1` [trichostatin A], the “inhibition of human coronary artery smooth muscle cell proliferation” value in data set [8] is given as “completely inhibit”. The IC50 in data set [8] (human coronary artery smooth muscle cells, read-out: anti-proliferative IC50) is around 6 nM. Moreover, the “anti-proliferative IC50's” value with tumor cell lines is “low nM range”.
